Measurements published in ChEMBL document CHEMBL5715954, “Silencing c-Myc translation as a therapeutic strategy through targeting PI3Kδ and CK1ε in hematological malignancies” (Blood, 2017).

Experiments:
Design in all cases: scale not given: the % may be the effect or the level left
[1] = biological target: Mast/stem cell growth factor receptor Kit (Homo sapiens) (UniProt P10721); assay: Inhibition of human c-Kit assessed as enzyme activity at 1 uM using poly[Glu:Tyr] (4:1) as substrate preincubated for 20 mins followed by [gamma-33P]-ATP addition and measured after 120 mins by radiometric Hot-SpotSM Kinase assay relative to control
Mast/stem cell growth factor receptor Kit (Homo sapiens), sequence (P10721 whole entry): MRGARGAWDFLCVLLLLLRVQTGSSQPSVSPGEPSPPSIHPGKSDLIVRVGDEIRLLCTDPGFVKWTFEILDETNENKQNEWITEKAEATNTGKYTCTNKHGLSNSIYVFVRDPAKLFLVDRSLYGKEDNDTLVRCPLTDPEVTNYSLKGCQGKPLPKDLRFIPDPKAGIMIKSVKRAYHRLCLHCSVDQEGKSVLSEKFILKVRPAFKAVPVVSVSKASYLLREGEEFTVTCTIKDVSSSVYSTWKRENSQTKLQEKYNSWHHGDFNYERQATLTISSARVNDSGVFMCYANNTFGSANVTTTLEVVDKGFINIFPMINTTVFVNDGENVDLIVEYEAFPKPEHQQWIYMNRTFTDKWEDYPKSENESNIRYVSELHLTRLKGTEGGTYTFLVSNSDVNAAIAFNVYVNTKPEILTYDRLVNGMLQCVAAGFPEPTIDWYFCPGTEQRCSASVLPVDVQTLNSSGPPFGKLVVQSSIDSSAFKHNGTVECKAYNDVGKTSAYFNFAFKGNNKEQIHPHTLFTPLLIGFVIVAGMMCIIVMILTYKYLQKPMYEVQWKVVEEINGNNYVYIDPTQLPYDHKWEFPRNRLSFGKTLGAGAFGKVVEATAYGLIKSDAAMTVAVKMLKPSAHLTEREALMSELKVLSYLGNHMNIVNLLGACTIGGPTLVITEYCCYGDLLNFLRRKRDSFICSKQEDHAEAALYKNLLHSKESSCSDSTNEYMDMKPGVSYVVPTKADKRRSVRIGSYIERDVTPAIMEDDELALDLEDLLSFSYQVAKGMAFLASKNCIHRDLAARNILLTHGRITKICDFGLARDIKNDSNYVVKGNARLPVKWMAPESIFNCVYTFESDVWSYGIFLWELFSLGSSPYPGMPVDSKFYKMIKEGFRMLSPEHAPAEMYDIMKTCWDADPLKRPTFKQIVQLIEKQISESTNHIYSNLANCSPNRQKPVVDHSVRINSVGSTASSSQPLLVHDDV

[2] = biological target: Cyclin-dependent kinase 5/CDK5 activator 1 (Homo sapiens) (UniProt Q00535+Q15078); assay: Inhibition of human CDK5/p35 assessed as enzyme activity at 1 uM using RB Protein as substrate preincubated for 20 mins followed by [gamma-33P]-ATP addition and measured after 120 mins by radiometric Hot-SpotSM Kinase assay relative to control; type: protein-complex assay
Cyclin-dependent kinase 5/CDK5 activator 1 (Homo sapiens), sequence (Q00535 whole entry): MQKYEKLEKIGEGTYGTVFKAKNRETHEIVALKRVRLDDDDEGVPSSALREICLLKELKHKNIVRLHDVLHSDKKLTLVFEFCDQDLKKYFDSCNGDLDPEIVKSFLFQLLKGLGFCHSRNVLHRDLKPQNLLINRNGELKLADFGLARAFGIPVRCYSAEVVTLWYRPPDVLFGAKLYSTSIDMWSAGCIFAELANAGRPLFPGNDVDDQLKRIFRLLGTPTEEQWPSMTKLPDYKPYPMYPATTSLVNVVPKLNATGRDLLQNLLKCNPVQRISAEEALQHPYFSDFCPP
Cyclin-dependent kinase 5/CDK5 activator 1 (Homo sapiens), sequence (Q15078 99-307 partner limits assumed): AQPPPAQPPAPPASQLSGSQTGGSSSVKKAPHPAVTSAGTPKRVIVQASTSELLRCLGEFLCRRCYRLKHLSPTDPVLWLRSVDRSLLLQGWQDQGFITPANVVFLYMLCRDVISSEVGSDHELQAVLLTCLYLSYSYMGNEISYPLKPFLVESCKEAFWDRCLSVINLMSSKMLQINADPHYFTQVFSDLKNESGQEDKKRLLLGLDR

[3] = biological target: Mitogen-activated protein kinase 7 (Homo sapiens) (UniProt Q13164); assay: Inhibition of human ERK5 assessed as enzyme activity at 1 uM using myelin basic protein as substrate preincubated for 20 mins followed by [gamma-33P]-ATP addition and measured after 120 mins by radiometric Hot-SpotSM Kinase assay relative to control
Mitogen-activated protein kinase 7 (Homo sapiens), sequence (Q13164 2-816 limits assumed): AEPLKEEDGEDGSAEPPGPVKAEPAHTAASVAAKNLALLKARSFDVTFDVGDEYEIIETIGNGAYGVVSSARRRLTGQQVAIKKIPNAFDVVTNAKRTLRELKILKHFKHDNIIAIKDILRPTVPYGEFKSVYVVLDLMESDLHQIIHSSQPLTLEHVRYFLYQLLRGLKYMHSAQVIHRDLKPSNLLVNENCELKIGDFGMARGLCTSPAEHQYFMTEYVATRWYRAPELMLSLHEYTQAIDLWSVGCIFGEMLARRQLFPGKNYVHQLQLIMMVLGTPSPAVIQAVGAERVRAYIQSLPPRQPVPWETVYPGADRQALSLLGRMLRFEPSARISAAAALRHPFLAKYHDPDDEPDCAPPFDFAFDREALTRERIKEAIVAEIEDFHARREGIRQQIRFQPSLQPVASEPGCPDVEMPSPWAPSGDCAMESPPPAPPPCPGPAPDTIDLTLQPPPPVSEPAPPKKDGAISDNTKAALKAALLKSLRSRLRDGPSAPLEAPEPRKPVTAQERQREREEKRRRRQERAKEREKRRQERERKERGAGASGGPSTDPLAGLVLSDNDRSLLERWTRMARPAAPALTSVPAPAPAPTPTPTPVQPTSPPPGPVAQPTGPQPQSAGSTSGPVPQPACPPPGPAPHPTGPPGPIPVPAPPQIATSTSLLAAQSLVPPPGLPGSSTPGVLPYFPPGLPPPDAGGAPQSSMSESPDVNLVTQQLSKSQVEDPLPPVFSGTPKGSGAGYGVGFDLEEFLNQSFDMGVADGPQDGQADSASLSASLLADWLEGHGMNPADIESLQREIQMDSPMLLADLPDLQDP

[4] = biological target: Fibroblast growth factor receptor 2 (Homo sapiens) (UniProt P21802); assay: Inhibition of human FGFR2 assessed as enzyme activity at 1 uM using poly[Glu:Tyr] (4:1) as substrate preincubated for 20 mins followed by [gamma-33P]-ATP addition and measured after 120 mins by radiometric Hot-SpotSM Kinase assay relative to control
Fibroblast growth factor receptor 2 (Homo sapiens), sequence (P21802 22-821 limits assumed): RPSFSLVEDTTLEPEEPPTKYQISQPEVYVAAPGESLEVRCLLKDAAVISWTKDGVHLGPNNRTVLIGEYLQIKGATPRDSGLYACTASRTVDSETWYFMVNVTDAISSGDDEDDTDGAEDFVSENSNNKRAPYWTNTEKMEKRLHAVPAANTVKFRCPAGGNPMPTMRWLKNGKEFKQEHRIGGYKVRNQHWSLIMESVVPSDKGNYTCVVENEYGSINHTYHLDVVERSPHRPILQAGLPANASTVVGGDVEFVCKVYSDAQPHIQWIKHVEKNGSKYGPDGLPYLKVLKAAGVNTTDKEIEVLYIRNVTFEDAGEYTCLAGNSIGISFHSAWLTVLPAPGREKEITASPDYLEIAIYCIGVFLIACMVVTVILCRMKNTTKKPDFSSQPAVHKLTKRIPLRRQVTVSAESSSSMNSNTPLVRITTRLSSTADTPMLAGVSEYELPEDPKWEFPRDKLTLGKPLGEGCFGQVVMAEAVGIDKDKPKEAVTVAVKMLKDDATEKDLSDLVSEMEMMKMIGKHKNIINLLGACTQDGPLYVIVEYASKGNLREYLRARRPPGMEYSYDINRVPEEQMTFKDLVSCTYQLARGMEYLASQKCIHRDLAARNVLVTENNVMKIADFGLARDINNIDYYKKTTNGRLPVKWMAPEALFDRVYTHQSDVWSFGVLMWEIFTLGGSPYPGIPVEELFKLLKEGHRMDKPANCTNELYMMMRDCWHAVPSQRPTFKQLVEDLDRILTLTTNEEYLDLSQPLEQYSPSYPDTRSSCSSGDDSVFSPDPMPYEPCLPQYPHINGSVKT

[5] = biological target: Vascular endothelial growth factor receptor 3 (Homo sapiens) (UniProt P35916); assay: Inhibition of human FLT4 assessed as enzyme activity at 1 uM using poly[Glu:Tyr] (4:1) as substrate preincubated for 20 mins followed by [gamma-33P]-ATP addition and measured after 120 mins by radiometric Hot-SpotSM Kinase assay relative to control
[6] = biological target: T1, Beta-adrenergic receptor kinase 1 (Homo sapiens) (UniProt P25098); assay: Inhibition of human GRK2 assessed as enzyme activity at 1 uM using casein as substrate preincubated for 20 mins followed by [gamma-33P]-ATP addition and measured after 120 mins by radiometric Hot-SpotSM Kinase assay relative to control
T1 sequence (whole entry): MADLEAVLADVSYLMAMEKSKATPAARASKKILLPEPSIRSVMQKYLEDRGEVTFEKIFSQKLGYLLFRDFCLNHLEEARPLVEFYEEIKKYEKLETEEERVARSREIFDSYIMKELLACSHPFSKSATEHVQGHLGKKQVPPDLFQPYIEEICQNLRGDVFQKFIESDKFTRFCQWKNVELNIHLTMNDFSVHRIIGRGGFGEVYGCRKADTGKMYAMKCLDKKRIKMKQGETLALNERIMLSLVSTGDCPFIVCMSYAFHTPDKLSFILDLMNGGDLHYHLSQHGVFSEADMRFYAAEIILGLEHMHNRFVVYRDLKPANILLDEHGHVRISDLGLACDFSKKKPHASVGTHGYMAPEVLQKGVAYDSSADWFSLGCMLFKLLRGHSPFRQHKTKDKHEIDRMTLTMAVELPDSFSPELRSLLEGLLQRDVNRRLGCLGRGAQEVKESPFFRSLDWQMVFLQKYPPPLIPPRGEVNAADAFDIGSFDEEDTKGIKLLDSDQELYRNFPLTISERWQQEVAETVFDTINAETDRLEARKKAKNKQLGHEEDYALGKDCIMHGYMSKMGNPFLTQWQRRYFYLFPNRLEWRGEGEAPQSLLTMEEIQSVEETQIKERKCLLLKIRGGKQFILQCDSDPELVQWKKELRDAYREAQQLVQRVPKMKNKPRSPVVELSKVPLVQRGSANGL

[7] = biological target: T2, Serine/threonine-protein kinase Nek2 (Homo sapiens) (UniProt P51955); assay: Inhibition of human NEK2 assessed as enzyme activity at 1 uM using myelin basic protein as substrate preincubated for 20 mins followed by [gamma-33P]-ATP addition and measured after 120 mins by radiometric Hot-SpotSM Kinase assay relative to control
T2 sequence (whole entry): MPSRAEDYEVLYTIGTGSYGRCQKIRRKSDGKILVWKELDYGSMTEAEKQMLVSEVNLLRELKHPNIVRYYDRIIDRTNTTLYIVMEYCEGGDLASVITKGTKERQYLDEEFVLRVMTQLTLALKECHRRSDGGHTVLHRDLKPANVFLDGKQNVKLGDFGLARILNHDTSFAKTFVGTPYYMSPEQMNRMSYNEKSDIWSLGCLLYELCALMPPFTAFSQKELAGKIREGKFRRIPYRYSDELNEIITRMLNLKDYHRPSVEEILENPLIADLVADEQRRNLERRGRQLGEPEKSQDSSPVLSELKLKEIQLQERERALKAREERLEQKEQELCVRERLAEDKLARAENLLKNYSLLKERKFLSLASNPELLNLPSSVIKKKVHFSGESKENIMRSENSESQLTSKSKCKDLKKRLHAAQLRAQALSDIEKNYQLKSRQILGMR

[8] = biological target: Platelet-derived growth factor receptor beta (Homo sapiens) (UniProt P09619); assay: Inhibition of human PDGFRb assessed as enzyme activity at 1 uM using poly[Glu:Tyr] (4:1) as substrate preincubated for 20 mins followed by [gamma-33P]-ATP addition and measured after 120 mins by radiometric Hot-SpotSM Kinase assay relative to control
Platelet-derived growth factor receptor beta (Homo sapiens), sequence (P09619 whole entry): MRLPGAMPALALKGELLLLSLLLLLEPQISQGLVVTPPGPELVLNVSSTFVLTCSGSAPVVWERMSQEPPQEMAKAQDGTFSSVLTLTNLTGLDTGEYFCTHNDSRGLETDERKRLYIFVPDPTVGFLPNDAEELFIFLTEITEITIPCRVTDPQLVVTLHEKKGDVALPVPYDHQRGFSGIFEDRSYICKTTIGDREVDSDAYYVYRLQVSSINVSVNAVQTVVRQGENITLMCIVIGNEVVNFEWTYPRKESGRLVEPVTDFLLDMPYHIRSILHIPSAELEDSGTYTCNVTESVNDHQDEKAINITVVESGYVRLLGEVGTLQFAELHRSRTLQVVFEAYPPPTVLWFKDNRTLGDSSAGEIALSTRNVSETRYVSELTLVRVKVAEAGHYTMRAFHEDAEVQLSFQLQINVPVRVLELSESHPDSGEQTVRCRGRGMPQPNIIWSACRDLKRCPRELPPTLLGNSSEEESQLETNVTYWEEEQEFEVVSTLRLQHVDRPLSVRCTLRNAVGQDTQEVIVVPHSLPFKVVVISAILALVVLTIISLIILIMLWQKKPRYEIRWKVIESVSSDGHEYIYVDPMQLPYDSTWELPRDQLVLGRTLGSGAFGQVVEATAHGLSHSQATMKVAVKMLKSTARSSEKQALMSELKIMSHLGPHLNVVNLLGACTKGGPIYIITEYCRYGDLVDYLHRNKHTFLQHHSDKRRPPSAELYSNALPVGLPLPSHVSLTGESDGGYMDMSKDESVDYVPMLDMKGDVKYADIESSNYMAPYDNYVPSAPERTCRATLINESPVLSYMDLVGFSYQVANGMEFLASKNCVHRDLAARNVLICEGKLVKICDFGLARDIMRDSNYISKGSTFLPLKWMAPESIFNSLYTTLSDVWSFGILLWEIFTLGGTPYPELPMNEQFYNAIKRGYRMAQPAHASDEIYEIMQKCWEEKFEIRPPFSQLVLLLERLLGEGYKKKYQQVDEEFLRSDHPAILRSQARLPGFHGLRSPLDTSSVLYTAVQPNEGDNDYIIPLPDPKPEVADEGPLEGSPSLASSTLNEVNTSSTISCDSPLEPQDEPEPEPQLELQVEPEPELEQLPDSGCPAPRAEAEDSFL

[9] = biological target: T3, Testis-specific serine/threonine-protein kinase 1 (Homo sapiens) (UniProt Q9BXA7); assay: Inhibition of human STK22D assessed as enzyme activity at 1 uM using KKKVSRSGLYRSPSMPENLNRPR as substrate preincubated for 20 mins followed by [gamma-33P]-ATP addition and measured after 120 mins by radiometric Hot-SpotSM Kinase assay relative to control
T3 sequence (whole entry): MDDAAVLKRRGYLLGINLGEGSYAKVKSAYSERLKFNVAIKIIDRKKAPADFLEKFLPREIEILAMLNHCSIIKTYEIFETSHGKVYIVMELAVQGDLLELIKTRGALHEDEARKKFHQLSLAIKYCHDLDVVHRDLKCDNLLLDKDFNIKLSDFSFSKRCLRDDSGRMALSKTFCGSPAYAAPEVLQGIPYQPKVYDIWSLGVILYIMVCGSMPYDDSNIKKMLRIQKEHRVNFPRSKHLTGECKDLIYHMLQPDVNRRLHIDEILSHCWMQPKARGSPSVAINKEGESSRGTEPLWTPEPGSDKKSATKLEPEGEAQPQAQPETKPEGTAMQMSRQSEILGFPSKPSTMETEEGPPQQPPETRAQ

[10] = biological target: Mitogen-activated protein kinase kinase kinase 20 (Homo sapiens) (UniProt Q9NYL2); assay: Inhibition of human ZAK/MLTK assessed as enzyme activity at 1 uM using myelin basic protein as substrate preincubated for 20 mins followed by [gamma-33P]-ATP addition and measured after 120 mins by radiometric Hot-SpotSM Kinase assay relative to control
Mitogen-activated protein kinase kinase kinase 20 (Homo sapiens), sequence (Q9NYL2 2-800 limits assumed): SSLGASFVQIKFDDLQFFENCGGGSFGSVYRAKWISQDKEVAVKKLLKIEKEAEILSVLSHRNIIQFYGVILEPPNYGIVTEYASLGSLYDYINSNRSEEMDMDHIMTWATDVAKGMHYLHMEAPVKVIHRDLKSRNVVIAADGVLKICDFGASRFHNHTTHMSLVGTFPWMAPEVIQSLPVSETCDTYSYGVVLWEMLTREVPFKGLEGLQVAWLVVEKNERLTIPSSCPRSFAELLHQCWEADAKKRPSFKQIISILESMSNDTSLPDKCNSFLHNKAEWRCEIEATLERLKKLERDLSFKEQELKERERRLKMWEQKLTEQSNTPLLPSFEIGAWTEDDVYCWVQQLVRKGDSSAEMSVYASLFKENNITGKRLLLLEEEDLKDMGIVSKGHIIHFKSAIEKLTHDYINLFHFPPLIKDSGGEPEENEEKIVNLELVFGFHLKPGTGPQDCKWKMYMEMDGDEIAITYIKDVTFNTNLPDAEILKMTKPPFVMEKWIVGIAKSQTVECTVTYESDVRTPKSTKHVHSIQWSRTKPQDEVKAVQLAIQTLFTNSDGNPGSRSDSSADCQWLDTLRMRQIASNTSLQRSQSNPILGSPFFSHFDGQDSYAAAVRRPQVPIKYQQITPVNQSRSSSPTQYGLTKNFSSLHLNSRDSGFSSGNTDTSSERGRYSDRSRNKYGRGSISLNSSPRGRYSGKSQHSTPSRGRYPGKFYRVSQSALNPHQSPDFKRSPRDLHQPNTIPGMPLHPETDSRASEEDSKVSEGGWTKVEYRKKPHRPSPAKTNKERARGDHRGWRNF

Compound | Activity [1] | Activity [2] | Activity [3] | Activity [4] | Activity [5] | Activity [6] | Activity [7] | Activity [8] | Activity [9] | Activity [10]
CC[C@H](Nc1ncnc2[nH]cnc12)c1nc2cccc(F)c2c(=O)n1-c1ccccc1 | 99.4% | 97.4% | 90.6% | 95.8% | 98.8% | 93.9% | 98% | 102% | 98% | 96.5%
CC(C)Oc1ccc(-c2nn([C@@H](C)c3oc4ccc(F)cc4c(=O)c3-c3cccc(F)c3)c3ncnc(N)c23)cc1F [UMBRALISIB] | 97.4% | 91.7% | 103% | 97.8% | 98.8% | 94.5% | 101% | 104% | 95.5% | 92.3%
C[C@H](Nc1ncnc2nc[nH]c12)c1cc2cccc(Cl)c2c(=O)n1-c1ccccc1 | 103% | 97.1% | 92.9% | 93.9% | 101% | 94.2% | 110% | 97.8% | 93.9% | 88.7%
